Reference: patent US10940188B2, “Compounds and methods for treatment and prevention of Flavivirus infection” (priority 2016, dated 2021)
Counter-ions that a name gives are not always drawn. Like-named read-outs stand apart in the source and are kept apart here.

How the values were obtained:
[1] = system: ZIKV-induced caspase 3/7 activity in SNB-19 cells; experiment: Caspase 3/7 activity assay, ZIKV-infected SNB-19 cells; format: cell-based; conditions: ZIKV-infected SNB-19 cells; for IC50: read-out: Caspase 3 (IC50, uM) SNB-19; for Emax: read-out: Caspase 3 (efficacy, %) SNB-19
Protocol: (§1) Caspase-Glo 3/7 assay kit (catalog number G8092; Promega, Madison, Wis.) was used to detect caspase 3/7 activity. Reagents were reconstituted as described in the protocol from the manufacturer. Polystyrene plates (384-well and 1536-well; regular tissue culture treated and PDL coated) were purchased from Greiner Bio-One (Monroe, N.C.). Cells were seeded in 384- and 1536-well assay plates and cultured at 37° C. with 5% CO2 for 16 hours. ZIKV solution was added to cells, followed by incubation at 37° C. with 5% CO2 for 6 hours. Caspase-Glo 3/7 was added to each well, unless otherwise specified, and incubated at room temperature for 30 minutes. The luminescence intensity of the assay plates was measured using a ViewLux plate reader (PerkinElmer). Data were normalized by using the cell-containing wells without ZIKV as a negative control (0% induction of caspase 3/7 activity) and wells containing ZIKV infected cells that induced caspase 3/7 activity were used as a positive control (100% induction of caspase 3/7 activity). […]
(§2) Caspase-Glo 3/7 assay kit (Promega) was used to detect caspase 3/7 activity. Reagents were reconstituted as described in the protocol from the manufacturer. Cells were seeded in 384- and 1536-well assay plates and cultured at 37° C. with 5% CO2 for 16 hours. ZIKV solution was added to cells, followed by incubation at 37° C. with 5% CO2 for 6 hours. Caspase-Glo 3/7 was added to each well at a 1:1 ratio, unless otherwise specified, and incubated at room temperature for 30 minutes. The luminescence intensity of the assay plates was measured using a ViewLux plate reader (PerkinElmer). Data was normalized by using the cell-containing wells without ZIKV as a negative (0% induction of caspase 3/7 activity) control and wells containing ZIKV infected cells that induced caspase 3/7 activity were used as a positive control (100% induction of caspase 3/7 activity). […]

[2] = system: ZIKV-induced cell death in SNB-19 cells; experiment: ATP cell viability assay for ZIKV-induced cell death, SNB-19 cells; format: cell-based, human; conditions: for IC50: read-out: Cell viability (IC50, uM) SNB-19
Protocol: (§3) The reagent was reconstituted and prepared as described by the manufacturer. In order to measure the cell death caused by ZIKV infection, cells were cultured for 16 hours at 37° C. with 5% CO2 in assay plates, followed by the addition of ZIKV solution and incubation at 37° C. with 5% CO2 for 72 hours. ATPlite, the ATP monitoring reagent, was then added to the assay plates and they were incubated for 15 minutes. The resulting luminescence was measured using the ViewLux plate reader (Perkin Elmer). Data were normalized using the wells without cells as a control for 100% cell killing, and cell-containing wells without ZIKV infection were used as full cell viability (0% cell killing). […]
as §3, with “The ATPlite luminescence assay system assay kit (PerkinElmer) was used to determine cell viability. The reagent” for “The reagent”, “by the manufacture. In order” for “by the manufacturer. In order”, “followed by addition of” for “followed by the addition of”, “plates and incubated for” for “plates and they were incubated for”, “Elmer). Data was normalized using” for “Elmer). Data were normalized using”

[3] = system: ZIKV-induced caspase 3/7 activity in hNPCs; experiment: Caspase 3/7 activity assay, ZIKV-infected hNPCs; format: cell-based; conditions: ZIKV-infected hNPCs; for IC50: read-out: Caspase 3 (IC50, uM) NPCs; for Emax: read-out: Caspase 3 (efficacy, %) NPCs
Protocol: Caspase-Glo 3/7 assay kit (catalog number G8092; Promega, Madison, Wis.) was used to detect caspase 3/7 activity. Reagents were reconstituted as described in the protocol from the manufacturer. Polystyrene plates (384-well and 1536-well; regular tissue culture treated and PDL coated) were purchased from Greiner Bio-One (Monroe, N.C.). Cells were seeded in 384- and 1536-well assay plates and cultured at 37° C. with 5% CO2 for 16 hours. ZIKV solution was added to cells, followed by incubation at 37° C. with 5% CO2 for 6 hours. Caspase-Glo 3/7 was added to each well, unless otherwise specified, and incubated at room temperature for 30 minutes. The luminescence intensity of the assay plates was measured using a ViewLux plate reader (PerkinElmer). Data were normalized by using the cell-containing wells without ZIKV as a negative control (0% induction of caspase 3/7 activity) and wells containing ZIKV infected cells that induced caspase 3/7 activity were used as a positive control (100% induction of caspase 3/7 activity).
Human NPCs were seeded onto PDL coated 1536-well assay plates at 250 cells per 3 μl/well and incubated at 37° C. in 5% CO2 for 16 hours. Test compounds dissolved in DMSO were transferred to assay plates at a volume of 23 nl/well by an automated pintool workstation (Wako Automation, San Diego, Calif.). Compounds were incubated with cells for 30 minutes at 37° C. in 5% CO2, immediately followed by the addition of 2 μl/well of ZIKV. Incubation time of compound-treated cells with ZIKV varied based on assay format. Experiments measuring virus-induced caspase 3/7 activity required a 6 hour incubation of ZIKV in the presence compounds at 37° C. in 5% CO2. Following this incubation, 3.5 μl/well of caspase 3/7 reagent mixture was added to assay plates. The plates were incubated for 30 minutes at room temperature, and the resultant luminescence signal was measured using a ViewLux plate reader (Perkin Elmer). Experiments measuring virus-induced cell death required a 72-hour incubation of ZIKV in the presence of compounds at 37° C. in 5% CO2. Following this incubation, 3.5 μl/well of ATP content detection reagent was added to assay plates, incubated for 30 minutes at the room temperature, and the resultant luminescence signal was measured in a ViewLux plate reader.
Caspase-Glo 3/7 assay kit (Promega) was used to detect caspase 3/7 activity. Reagents were reconstituted as described in the protocol from the manufacturer. Cells were seeded in 384- and 1536-well assay plates and cultured at 37° C. with 5% CO2 for 16 hours. ZIKV solution was added to cells, followed by incubation at 37° C. with 5% CO2 for 6 hours. Caspase-Glo 3/7 was added to each well at a 1:1 ratio, unless otherwise specified, and incubated at room temperature for 30 minutes. The luminescence intensity of the assay plates was measured using a ViewLux plate reader (PerkinElmer). Data was normalized by using the cell-containing wells without ZIKV as a negative (0% induction of caspase 3/7 activity) control and wells containing ZIKV infected cells that induced caspase 3/7 activity were used as a positive control (100% induction of caspase 3/7 activity).
Human NPCs were seeded onto PDL coated 1536-well assay plates at 250 cells per 3 μl/well and incubated at 37° C. in 5% CO2 for 16 hours. Test compounds dissolved in DMSO were transferred to assay plates at a volume of 23 nl/well by an automated pintool workstation (Wako Automation, San Diego, Calif.). Compounds were incubated with cells for 30 minutes at 37° C. in 5% CO2, immediately followed by the addition of 2 μl/well of ZIKV. Incubation time of compound-treated cells with ZIKV varied based on assay format. Experiments measuring virus induced caspase 3/7 activity required a 6 hour incubation of ZIKV in the presence compounds at 37° C. in 5% CO2. […]

[4] = system: ZIKV-induced caspase 3/7 activity in human astrocytes; experiment: Caspase 3/7 activity assay, ZIKV-infected human astrocytes; format: cell-based; conditions: ZIKV-infected human astrocytes; for IC50: read-out: Caspase 3 (IC50, uM) Astrocyte; for Emax: read-out: Caspase 3 (efficacy, %) Astrocyte
Protocol: as §1, §2

[5] = system: ZIKV-induced cell death in human astrocytes; experiment: ATP cell viability assay for ZIKV-induced cell death, human astrocytes; format: cell-based

| Compound | IC50 ([1]; Homo sapiens) | Emax ([1]; Homo sapiens) | Cell viability (efficacy, %) SNB-19 ([2]; ZIKV-infected SNB-19 cells) | IC50 ([3]; Homo sapiens) | Emax ([3]; Homo sapiens) | IC50 ([4]; Astrocyte) | Emax ([4]; Astrocyte) | Cell viability (efficacy, %) Astrocyte ([5]; ZIKV-infected human astrocytes) | Caspase 3 (efficacy, %) SNB-19 [1] | IC50 [1] | Caspase 3 (efficacy, %) NPCs [3] | IC50 [3] | Caspase 3 (efficacy, %) Astrocyte [4] | IC50 [4] | IC50 ([5]; ZIKV-infected human astrocytes, read-out: Cell viability (IC50, uM) Astrocyte) | IC50 ([2]; ZIKV-infected SNB-19 cells) | IC50 ([2]; Homo sapiens, ZIKV-infected SNB-19 cells) | Cell viability (efficacy, %) SNB-19 [2] | Cell viability (efficacy, %) Astrocyte [5] |
| --- | --- | --- | --- | --- | --- | --- | --- | --- | --- | --- | --- | --- | --- | --- | --- | --- | --- | --- | --- |
| COc1ccc([C@@H]2CC(=O)c3c(O)cc(O)cc3O2)cc1O [Hesperetin] | 17.3 µM | 86% | 0.0% | 10.9 µM | 79.6% | 16.4 µM | 72.7% | 0.0% |  |  |  |  |  |  |  |  |  |  |  |
| COc1ccc(/C=C/C(=O)Nc2ccccc2C(=O)O)cc1OC [Tranilast] | 17.3 µM | 70.3% | 0.0% | 19.5 µM | 107% | 17.3 µM | 71.6% | 0.0% |  |  |  |  |  |  |  |  |  |  |  |
| Clc1ccccc1-c1nc(-c2ccncc2)no1 [Pifexole] | 8.2 µM | 83.6% | 0.0% | 4.61 µM | 92.2% | 6.9 µM | 86.3% | 0.0% |  |  |  |  |  |  |  |  |  |  |  |
| OCc1ccc(-c2ccc(-c3ccc(CO)s3)o2)s1 [RITA] |  |  | 0.0% |  |  |  |  | 81.7% | 101% | 0.22 µM | 50.9% | 14.6 µM | 41.2% | 27.5 µM | 5.81 µM |  |  |  |  |
| COc1cccc(NC(=O)/C=C/c2ccc(Cl)cc2)c1 [SB-366791] |  |  | 0.0% |  |  |  |  | 0.0% | 93.3% | 3.66 µM | 89.9% | 2.91 µM | 93.9% | 4.11 µM |  |  |  |  |  |
| N#C/C(=C\c1ccc(O)c(O)c1)C(=O)Nc1ccccc1 [Tyrphostin AG 494] |  |  | 45.6% |  |  |  |  | 0.0% | 55.6% | 21.8 µM | 72.8% | 17.3 µM | 72.5% | 18.4 µM |  | 30.8 µM |  |  |  |
| O=c1c2ccccc2[se]n1-c1ccccc1 [Ebselen] | 17.3 µM | 117% | 0.0% | 8.2 µM | 109% | 8.2 µM | 93.8% | 0.0% |  |  |  |  |  |  |  |  |  |  |  |
| O=c1c2ccccc2nc2n1CCc1c-2[nH]c2ccccc12 [Rutaecarpine] | 5.18 µM | 86.4% | 0.0% | 4.61 µM | 87.5% | 4.89 µM | 89.5% | 0.0% |  |  |  |  |  |  |  |  |  |  |  |
| Cc1nc(-c2ccc(OCC(C)C)c(C#N)c2)sc1C(=O)O [Febuxostat] | 2.91 µM | 104% | 68.4% | 3.88 µM | 83.2% | 2.31 µM | 84.8% | 0.0% |  |  |  |  |  |  |  |  | 3.66 µM |  |  |
| CN1CC[C@@]2(C)c3cc(OC(=O)Nc4ccccc4)ccc3N(C)[C@@H]12 [Phenserine] | 19.5 µM | 38.4% | 0.0% | 25.9 µM | 51.5% | 25.9 µM | 47.4% | 0.0% |  |  |  |  |  |  |  |  |  |  |  |
| O=C(Nc1ccc(Br)cc1)c1cc(Br)cc(Br)c1O [Tribromsalan] | 7.74 µM | 107% |  | 13.8 µM | 108% | 6.9 µM | 102% |  |  |  |  |  |  |  |  |  |  | 0.0% | 0.0% |
| Malachite green oxalate |  |  |  |  |  |  |  |  | 0.0% |  | 62.7% | 21.8 µM | 54.0% | 17.3 µM |  |  |  | 0.0% | 0.0% |
| C/C(O)=C(\C#N)C(=O)Nc1ccc(C(F)(F)F)cc1 [Teriflunomide] | 1.03 µM | 93.1% | 0.0% | 0.92 µM | 94.5% | 1.3 µM | 86.9% | 0.0% |  |  |  |  |  |  |  |  |  |  |  |
| COc1cc2nc(N3CCN(C(=O)C4CCCO4)CC3)nc(N)c2cc1OC (stereo not shown) [Terazosin hydrochloride] | 17.3 µM | 77.3% |  | 10.9 µM | 84.4% | 12.3 µM | 88.9% |  |  |  |  |  |  |  |  |  |  |  |  |
